Laboratory results published in publication PMC5786060, “Discovery of new molecular entities able to strongly interfere with Hsp90 C-terminal domain” (Scientific Reports, 2018).
Like-named read-outs stand apart in the source and are kept apart here.

Tests used:
recombinant human Hsp90α = target: T1, recombinant human Hsp90α (Homo sapiens, UniProt P07900); test: SPR binding to immobilized recombinant Hsp90α; details: Biacore 3000, immobilized full length Hsp90α, 25 °C, 1:1 Langmuir model, read-out: KD (nM) ± SD
T1 construct: purchased Abcam
Protocol: Recombinant human Hsp90α was purchased from Abcam (Abcam, Cambridge, UK). […] SPR analyses were carried out according to our previously published data[25]–[28],[32],[50]. Surface Plasmon Resonance Spectroscopy (SPR) analyses were performed to determine binding of various molecules to full length Hsp90α using a Biacore 3000 optical biosensor equipped with research-grade CM5 sensor chips (GE Healthcare). Hsp90α was coupled to the surface of a CM5 sensor chip using standard amine-coupling protocols, according to the manufacturer’s instructions.
The protein (100 µg mL^−1 in 10 mM CH3COONa, pH 5.0) was immobilized on individual sensor chip surfaces at a flow rate of 5 µL min^−1 to obtain densities of 8–12 kRU. For the experiments a recombinant Hsp90α surface, a BSA surface and one unmodified reference surface were prepared for simultaneous analyses. […] For each molecule a six-point concentration series were set up, spanning […], and for each sample the complete binding study was performed using triplicate aliquots. Changes in mass, due to the binding response, were recorded as resonance units (RU). To obtain the dissociation constant (KD) (Table 1), these responses were fit to a 1:1 Langmuir binding model by nonlinear regression using the BiaEvaluation software program provided by GE Healthcare. Simple interactions were suitably fitted to a single-site bimolecular interaction model (A + B = AB), yielding a single KD. (Table 1). SPR experiments were performed at 25 °C, using a flow rate of 50 µL min^−1, with 60 s monitoring of association and 300 s monitoring of dissociation.

[1] = tested on: U937 (human monocytic cell line from histiocytic lymphoma); test: Anti-proliferation MTT assay, U937 cells; assay type: cell-based; details: for IC50: Homo sapiens
Protocol: (§1) Jurkat and U937 (2 × 10^4 /well) cells were seeded in triplicate in 96 well−plates and incubated for the 24 h or 48 h in the absence or presence of different concentrations of compounds 1, 4–5, 7–15, 21–22, 26 (concentration between 10 µM to 100 µM) or Novobiocin (concentration between 50 µM to 500 µM). Stock solutions of compounds (100 mM in DMSO) were diluted just before addition to the sterile culture medium and the final concentration of DMSO was 0.15% (v/v).
(§2) The number of viable cells was determined by using a […] (MTT, Sigma-Aldrich) conversion assay, according to the method described by Terracciano et al. 2016[27],[28]. After the indicated treatment, the cells were incubated for additional 3 h at 37 °C, with 25 µL of MTT (5 mg/mL in PBS). The formazan crystals thus formed were dissolved in 100 μl of buffer containing 50% (v/v) N,N-dimethylformamide, 20% SDS (pH 4.5). The absorbance was read at 570 nm using an Absorbance Microplate Reader (Titertek multiskan MCC7340, LabSystems, Vienna, VA, USA) equipped with a 620 nm filter. The cell population growth inhibition was also tested by cytometric counting (trypan blu exclusion). IC50 values were calculated from cell viability dose−response curves and defined as the concentration resulting in 50% inhibition of cell survival, compared to control cells treated with DMSO (see Supplementary Material Tables S2 and S3).

[2] = tested on: Jurkat (human leukemic T lymphocyte); test: Anti-proliferation MTT assay, Jurkat cells; assay type: cell-based; details: for IC50: Homo sapiens
Protocol: as §1, §2

[3] = tested on: PHA-stimulated human peripheral blood mononuclear cells (PBMC); test: Cytotoxicity on PHA-stimulated PBMC by trypan blue count; assay type: cell-based; details: 25 µM, DMSO control about 5 ± 0.9%
Protocol: Human peripheral blood mononuclear cells (PBMC), induced to proliferate by phytohemagglutinin (PHA) (10 µg/ml), were used to evaluate cytotoxic effects by trypan blue count of compound 7 and 10. Human peripheral blood mononuclear cells (PBMC) were isolated from buffy coats of healthy donors (kindly provided by the Blood Center of the Hospital of Battipaglia, Salerno, Italy) by using standard Ficoll−Hypaque gradients.

Jurkat cells = test: Cell cycle distribution / hypodiploid cells by PI flow cytometry; assay type: cell-based, human; details: for hypodiploid cells: 200 µM
Protocol: Cell DNA content was measured by propidium iodide (PI) incorporation into permeabilized cells, as described by Nicoletti et al. Briefly, the Jurkat cells were treated for 24 h or 48 h with compounds used at the different concentrations. In particular, the compounds 7 or 10 were used at 25 or 50 µM, novobiocin was used at 50, 100 or 200 µM. The treated cells were harvested and incubated with a PI solution (0.1% sodium citrate, 0.1% Triton X-100 and 50 μg/ml of prodium iodide, Sigma-Aldrich, 10 μg/ml Rnase A) for 30 min at room temperature.
The cells were analyzed using FACScalibur flow cytometry (Becton Dickinson, San Josè, CA. The distribution of cells in cell cycle phases was determined using ModFit LT analysis software (Becton Dickinson). The percentage of apoptotic cells is represented as the percentage of hypodiploid cells accumulated at the sub G0/G1 phase of the cell cycle and was quantified using the CellQuest software (Becton Dickinson). Results were expressed as a mean ± SD of three experiments performed in triplicate.

[4] = tested on: Hsp90-dependent client proteins Raf-1, p-Akt, p-Erk and p53; Hsc70, Hsp90, Hsp70 in Jurkat cells; test: Western blot of Hsp90 client proteins and heat shock proteins; assay type: cell-based, human; details: 24 h
Protocol: Following the treatment, the cells were trypsinized and homogenized on ice in RIPA lysis buffer (50 mM Hepes, 10 mM EDTA, 150 mM NaCl, 1% NP-40, 0.5% sodium deoxycholate, 0.1% SDS, pH 7.4), supplemented with protease inhibitors cocktail (Sigma-Aldrich). After centrifugation at 4 °C to removed cell debris, an equal protein amount (40 µg) was separated by SDS-PAGE under denatured reducing conditions and was then transferred to nitrocellulose membranes. The blots were blocked with 3% BSA and were incubated at 4 °C overnight with primary antibodies: anti-Hsp 70; anti-Hsp 90α/ß, anti-Raf1, anti-pAkt, anti Erk, anti pErk, anti-p53, anti Hsc70, anti GRP94, anti cyclin A antibodies (Santa Cruz Biotechnology, Inc., Delaware, CA, USA), anti-actin antibody (Sigma-Aldrich) anti CDK2, anti Cyclin D1 and anti CDK4 antibodies (Cell Signaling Technology, Leiden, Netherlands). Appropriate peroxidase-conjugate secondary antibodies were used to detect primary antibodies, and enzymatic signals were visualized by chemiluminescence reagent Pierce ECL (Thermo Scientific, Rockford, IL, USA). Quantitative densitometry analyses were performed using a ImageQuant LAS 4000 system (GE Healthcare Life Sciences,NY, USA).

[5] = U-937, 24 h, read-out: IC50 (µM) 24h
[6] = U-937, 48 h, read-out: IC50 (µM) 48h
[7] = 25 and 50 µM, western blot densitometry

| SMILES | Kd (recombinant human Hsp90α) [nM] | IC50 [1, 5] [µM] | IC50 [1, 6] [µM] | IC50 ([2]; 24 h, read-out: IC50 (µM) 24h) [µM] | IC50 ([2]; 48 h, read-out: IC50 (µM) 48h) [µM] | further results |
| --- | --- | --- | --- | --- | --- | --- |
| NC(=O)c1ccccc1NC(=O)CCCCCN1C(=O)c2ccccc2C1=O [Compound 1] | 1.5 ± 0.5 | > 100 | > 100 | > 100 | > 100 |  |
| O=C1c2ccccc2C(=O)N1CCSc1ncnc2scc(-c3ccc(Cl)cc3)c12 [Compound 4] | 3.2 ± 1.1 | > 100 | > 100 | > 100 | > 100 |  |
| Cc1cc(C)c2c(C)cc3nnc(SCCCN4C(=O)c5ccccc5C4=O)n3c2c1 [Compound 5] | 14.7 ± 9.4 | 91.2 | 91.2 | 100 | 98.3 |  |
| COc1ccc(NCC(=O)Nc2ncc(Cc3ccc(Cl)c(Cl)c3)s2)cc1 [Compound 7] | 5.2 ± 3.8 | 51.2 | 51 | 25.1 | 22 | non-viable cells percentage ([3]; 24 h): about 6 ± 1.8%; non-viable cells percentage ([3]; 48 h): ~8 ± 1.5%; hypodiploid cells (subG0/G1 DNA content) (Jurkat cells; 100 µM, 48 h): 10%; degradation of Hsp90-dependent client proteins Raf-1, p-Akt, p-Erk and p53 [4, 7]: 50–60%; reduction of Hsc70 [4, 7]: 15–20% |
| O=C(CNc1ccc(F)cc1)Nc1ncc(Cc2ccccc2F)s1 [Compound 8] | 2.4 ± 0.6 |  |  |  |  | IC50 (µM) 24h [1]: not active; IC50 (µM) 48h [1]: not active; IC50 (µM) 24h ([2]; 24 h): not active; IC50 (µM) 48h ([2]; 48 h): not active |
| COc1ccc(NCC(=O)Nc2ncc(Cc3cccc4ccccc34)s2)cc1 [Compound 9] | 20.9 ± 9.5 | 97.3 | 95.3 | 90.2 | 85.5 |  |
| O=C(CCCCCn1c(=O)[nH]c2ccccc2c1=O)CCCn1ccnc1 [Compound 11] | 79.3 ± 7.2 | 90.1 | 90.3 | 48.2 | 42.5 |  |
| O=C(CCCCCn1c(=O)[nH]c2ccccc2c1=O)NCCN1CCOCC1 [Compound 12] | 95.1 ± 5.7 | > 100 | > 100 | > 100 | > 100 |  |
| COC(=O)c1ccc(NC(=O)CCCCCn2c(=O)[nH]c3ccccc3c2=O)cc1 [Compound 13] | 300 ± 19.3 | 98.3 | 97 | 56.8 | 54 |  |
| NC(=O)c1ccc(NC(=O)CCCCCn2c(=O)[nH]c3ccccc3c2=O)cc1 [Compound 14] | 260 ± 8.4 | > 100 | > 100 | > 100 | > 100 |  |
| O=C1CCS(=O)(=O)N1c1ccc(S(=O)(=O)NCc2cccc3c2OCO3)cc1 [Compound 15] | 4.8 ± 2.9 |  |  |  |  | IC50 (µM) 24h [1]: not active; IC50 (µM) 48h [1]: not active; IC50 (µM) 24h ([2]; 24 h): not active; IC50 (µM) 48h ([2]; 48 h): not active |
| C=CCNC1=C2C[C@@H](C)C[C@H](OC)[C@H](O)[C@@H](C)/C=C(\C)[C@H](OC(N)=O)[C@@H](OC)/C=C\C=C(/C)C(=O)NC(=CC1=O)C2=O [Compound 17-AAG, 17-(Allylamino)-17-demethoxygeldanamycin, reference compound] |  |  |  |  |  | effect on Hsp90 and Hsp70 protein levels (heat shock response) ([4]; 17-AAG 2 µM, compounds 25 and 50 µM): significant up-regulation of Hsp90 and Hsp70 expression levels |
| COC(=O)c1ccc(Oc2c[nH]nc2-c2ccc(OC)cc2O)cc1 [Compound 20] | 14.2 ± 4.9 |  |  |  |  |  |
| COc1cc(/C=N/NC(=O)NC(=O)c2ccccc2Cl)ccc1O [Compound 21] | 13.2 ± 2.3 |  |  |  |  | IC50 (µM) 24h [1]: not active; IC50 (µM) 48h [1]: not active; IC50 (µM) 24h ([2]; 24 h): not active; IC50 (µM) 48h ([2]; 48 h): not active |
| CN(CCc1ccncc1)C(=O)c1ccc(N2C(=O)CCS2(=O)=O)cc1 [Compound 22] | 4.1 ± 2.6 |  |  |  |  | IC50 (µM) 24h [1]: not active; IC50 (µM) 48h [1]: not active; IC50 (µM) 24h ([2]; 24 h): not active; IC50 (µM) 48h ([2]; 48 h): not active |
| O=C(c1ccc2c(c1)OCO2)N1CCC(c2nc3ccccc3[nH]2)CC1 [Compound 26] | 25.7 ± 8.4 | > 100 | > 100 | > 100 | > 100 |  |
| CO[C@@H]1[C@@H](OC(N)=O)[C@@H](O)[C@H](Oc2ccc3c(O)c(NC(=O)c4ccc(O)c(CC=C(C)C)c4)c(=O)oc3c2C)OC1(C)C [Novobiocin, reference compound] |  | 232 | 190 | 171 | 150 | hypodiploid cells (Jurkat cells; 24 h): 14%; hypodiploid cells (Jurkat cells; 48 h): 30%; effect on cell cycle progression (Jurkat cells; 50 and 100 µM, 24 or 48 h): did not affect cell cycle progression |
